In article PMC9571290, “Preliminary Structure–Activity Relationship Study of the MMV Pathogen Box Compound MMV675968 (2,4-Diaminoquinazoline) Unveils Novel Inhibitors of Trypanosoma brucei brucei” (Molecules, 2022):
Read-outs that look alike come from different tables or passages of the source.

Tests used:
[1] = in vitro; settings: African green monkey
Description: (§1) The resulting pellet was resuspended and counted in a Neubauer chamber in the presence of trypan blue to exclude nonviable cells colored in blue. Once the cell load was estimated, they were either used for the next passage in a new flask or processed for the cytotoxicity assay.
(§2) Briefly, Vero cells at a density of 10^4 cells per well were plated in 100 µL of complete DMEM and incubated overnight to allow cell attachment. Plates were then controlled under an inverted fluorescence microscope (Lumascope LS520) to ensure adherence, sterility and cell integrity. Thereafter, culture medium from each well was carefully emptied, and plates were filled with 90 µL of fresh complete medium followed by the addition of 10 µL of serial 5-fold dilutions of compound solutions. […] Fluorescence was then read using a Magelan Infinite M200 fluorescence multiwell plate reader (Tecan) with excitation and emission wavelengths of 530 and 590 nm, respectively. The percentage of cell viability was calculated from readouts, and the median cytotoxic concentration (CC50) for each compound was deduced from concentration–response curves using GraphPad Prism 8.0 software as described above. Selectivity indexes were then determined for each test substance as follows: SI = CC50(Vero cells)/IC50(T. brucei brucei).

[2] = test system: Vero cells; experiment: cytotoxicity against Vero cells (resazurin viability assay); settings: read-out: CC50 Vero
Description: as §1, §2

[3] = test system: bloodstream forms of Trypanosoma brucei brucei; experiment: resazurin-based antitrypanosomal inhibition assay; assay type: cell-based
Description: Parasites were axenically cultivated in sterile vented flasks containing complete Hirumi’s modified Iscove’s medium 9 (HMI-9) [500 mL IMDM (Iscove’s modified Dulbecco’s medium) (Gibco, Waltham, MA, USA) supplemented with 10% (v/v) heat-inactivated fetal bovine serum (HIFBS) (Sigma Aldrich), 10% (v/v) serum plus (Sigma Aldrich), HMI-9 supplement (1 mM hypoxanthine, 0.16 mM thymidine, 50 µM bathocuproine disulfonic acid, 1.5 mM cysteine, 1.25 Mm pyruvic acid, 0.2 mM 2-mercaptoethanol (Sigma Aldrich)), and 1% (v/v) penicillin–streptomycin (Sigma Aldrich) and incubated at 37 °C in a 5% CO2 atmosphere.
The in vitro inhibitory potency of the 400 MMVPB compounds against bloodstream forms of Trypanosoma brucei brucei was evaluated using the resazurin-based inhibition assay as previously described. Briefly, parasites at their mid-logarithmic growth phase were counted, and the cell density was adjusted with fresh complete HMI-9 medium to 2 × 10^5 trypanosomes per mL. Then, 90 µL of parasite suspension was then distributed into the wells of 96-well flat-bottomed plates containing 10 µL of compounds for a final test concentration of 10 µM. […] Each assay plate was set up in duplicate and repeated two times. The percent parasite inhibition was determined for each compound based on fluorescence readouts relative to the mean fluorescence of negative control wells.
y = 100/[1+ 10^(logIC50/99-x)H], where H is the hill coefficient or slope factor [60].

[4] = test system: kinetoplastids (T. brucei brucei and T. brucei rhodesiense); parameters: method as in MMV Pathogen Box supporting information; settings: against kinetoplastids; ref MMV Pathogen Box supporting information; read-out: Reported IC50; cited from earlier work
[5] = Table 2, MMVPB compounds with known anti-kinetoplastid activity, read-out: IC50 ± SD T. b. b.
[6] = Table 2, negative log of IC50 in molar
[7] = Trypanosoma brucei, Table 1, reference drugs included in MMVPB, read-out: IC50 ± SD T. b. b.
[8] = Trypanosoma brucei, Table 1, negative log of IC50 in molar, read-out: pIC50 T. b. b. (converted)
[9] = Table 3, MMVPB compounds with known potency against other diseases, read-out: IC50 ± SD T. b. b.
[10] = Table 3, negative log of IC50 in molar

Row | SMILES | IC50 [3, 5] [nM] | pIC50 T. b. b. [3, 6] | IC50 [4] [nM] | CC50 ([2]; Table 3) [nM] | IC50 [3, 9] [nM] | pIC50 T. b. b. [3, 10] | other results
1 | CNCCC(Oc1ccc(C(F)(F)F)cc1)c1ccccc1 (stereo not shown) [MMV001561, fluoxetine, reference compound] |  |  |  |  |  |  | CC50 at 48 h [1]: 41500 ± 1000 nM
2 | CNC(=O)C1Cc2ccccc2N1C(=O)Cc1ccc(F)cc1 (stereo not shown) [MMV188296] | 1010 ± 250 | 5.99 | 490 |  |  |  | CC50 ([2]; Table 2): > 100000 nM
3 | Cc1ccc(C(=O)Nc2ccc(S(=O)(=O)O)c3cc(S(=O)(=O)O)cc(S(=O)(=O)O)c23)cc1NC(=O)c1cccc(NC(=O)Nc2cccc(C(=O)Nc3cc(C(=O)Nc4ccc(S(=O)(=O)O)c5cc(S(=O)(=O)O)cc(S(=O)(=O)O)c45)ccc3C)c2)c1 [MMV637953, Suramine, reference compound] |  |  |  |  |  |  | CC50 at 48 h [1]: > 100000 nM; IC50 [3, 7]: 80 ± 10 nM; IC50 [3, 8]: 81.3 nM
4 | O=C(Nc1ccc2c(c1)B(O)OC2)c1ccccc1C(F)(F)F [MMV652003] | 60 ± 40 | 7.22 | 150 |  |  |  | CC50 ([2]; Table 2): > 100000 nM
5 | Cc1nc(-c2ccccn2)nc(N2CCC(Cc3ccccc3)C2)c1Cl (stereo not shown) [MMV659004] | 1900 ± 3 | 5.72 | 6600 |  |  |  | CC50 ([2]; Table 2): > 100000 nM
6 | COc1ccc(C(=N)N)cc1-c1cn(-c2ccc(C(=N)N)cc2)nn1 [MMV675998] | 340 ± 30 | 6.47 | 250 |  |  |  | CC50 ([2]; Table 2): > 100000 nM
7 | CO[C@@H](C(=O)N1Cc2[nH]nc(NC(=O)c3ccc(N4CCN(C)CC4)cc3)c2C1)c1ccccc1 [MMV676600] | 650 ± 7 | 6.18 | 1020 |  |  |  | CC50 ([2]; Table 2): > 100000 nM
8 | Cn1c(=O)c2c(S(C)(=O)=O)snc2n(C)c1=O [MMV687251] |  |  |  | 6400 ± 2000 | 1900 ± 10 | 5.72 | 
9 | COc1cccc(-c2nc3c(N4CCCC4)cccc3n2CC2CCCN2)n1 (stereo not shown) [MMV687703] |  |  |  | > 100000 | 1700 ± 60 | 5.76 | 
10 | Cc1cnc(N2CCN[C@@H](Cc3ccccc3)C2)nc1Oc1ccc(-n2ccnc2)cc1 [MMV687765] |  |  |  | > 100000 | 2300 ± 300 | 5.64 | 
11 | O=C(Nc1ccc(C(F)(F)F)c(C(F)(F)F)c1)c1cc(Cl)ccc1O [MMV687807] |  |  |  | 11000 ± 1300 | 500 ± 40 |  | 
12 | CN1CCN(CCCOc2ncc(Nc3ncc(-c4ccc(C(F)(F)F)c(F)c4)nc3C(N)=O)cn2)CC1 [MMV687812] |  |  |  | 2660 ± 300 | 1700 ± 100 | 5.76 | 
13 | CCc1ccc(S(=O)(=O)Nc2cc(CN3CCN(CCC(C)C)CC3)ccc2C)cc1 [MMV688124] |  |  |  | > 100000 | 2900 ± 80 | 5.53 | 
14 | CC1=Nc2ccc(Cl)cc2C(c2ccccc2)N1CCNC(=O)CN(C)C (stereo not shown) [MMV688410] | 8500 ± 100 | 5.07 | 3800 |  |  |  | 
15 | CC(C)n1nc(-c2cc3c(Cl)cccc3[nH]2)c2c(N)ncnc21 [MMV688417] |  |  |  | 13600 ± 2900 | 4380 ± 900 | 5.36 | 
16 | CS(=O)(=O)c1ccc(C(=O)N(CC2CCCO2)c2nc3ccccc3s2)cc1[N+](=O)[O-] (stereo not shown) [MMV688761] |  |  |  | > 100000 | 8330 ± 90 | 5.08 | 
17 | CNc1nnc(Sc2cnn(-c3ccccc3)c(=O)c2Cl)s1 [MMV688763] |  |  |  | 8140 ± 10 | 800 ± 100 |  | 
18 | Cc1[nH]c2ccccc2c1C(c1cccs1)N1CCN(C)CC1 (stereo not shown) [MMV688768] |  |  |  | > 100000 | 8360 ± 80 | 5.07 | 
19 | O=C(Cn1ccnc1[N+](=O)[O-])NCc1ccccc1 [MMV688773, Benznidazole, reference compound] |  |  |  |  |  |  | CC50 at 48 h [1]: > 100000 nM; IC50 [3, 7]: 300 ± 10 nM; IC50 [3, 8]: 302 nM
20 | CS(=O)(=O)c1ccccc1C(=O)N(Cc1ccccc1)c1ccccc1 [MMV688798] | 300 ± 25 | 6.52 | 555 |  |  |  | 
21 | CCOc1ccc2cc(-c3nn(CC4CCN(C)CC4)c4ncnc(N)c34)ccc2c1 [MMV688854] |  |  |  | 13400 ± 1500 | 8500 ± 60 | 5.07 | 
22 | Cc1ccc(S(=O)(=O)Nc2ccc(CN3CCN(C(=O)c4cccc(C#N)c4)CC3)cc2)cc1 [MMV689028] |  |  | 140 |  |  |  | CC50 ([2]; Table 2): > 100000 nM
23 | Clc1ccc(CN2CCN(C3=NCCN3)CC2)cc1Cl [MMV689060] | 2400 ± 60 | 5.61 | 31600 |  |  |  | 
24 | COc1cc([C@@H]2c3cc4c(cc3[C@H](O)[C@H]3COC(=O)[C@H]23)OCO4)cc(OC)c1OC [Podophyllotoxin, reference compound] |  |  |  |  |  |  | CC50 at 48 h [1]: 430 ± 140 nM
